Data taken from patent publication US6444850B1, “Fungicidial compounds having a fluorovinyloxphyenyl moiety and process for the preparation thereof” (priority 1997, dated 2002).

How the values were obtained:
Erysiphae graminis = assay: Fungicidal activity against barley powdery mildew (BPM) disease; assay type: in vivo; settings: for C. V. (%), Fungicidal activities against TLB at 10 ppm: Table 9 (Test Example 6); for C. V. (%) BPM: 50 ppm, control value, barley powdery mildew
Experimental: Erysiphae graminis was subcultured on a wheat plant in a laboratory. 15 g of barley seeds was sowed in a pot (diameter 6.5 cm) and cultured in a greenhouse for 7 days to obtain a barley plant having only a primary leaf. The barley plant was inoculated with spores by shaking thereover another plant infected by BPM. The inoculated barley plant was cultured in an incubator maintained at a temperature of 22 to 24° C. and a relative humidity of 50% for 7 days to induce BPM. L.A. on the leaf was measured to calculate an C.V.

[1] = system: Pyricularia oryzae Carvara KA301; assay type: in vivo; settings: for C. V. (%) Fungicidal Activities against RCB at 10 ppm / C. V. (%) Fungicidal Activities against RCB at 10 ppm (TABLE 6): sprayed on Nakdong rice plant, control value from lesion area; for C. V. (%) RCB: 50 ppm, control value, rice blast
Botrytis cinerae = assay: Fungicidal activity against cucumber gray mold rot (CGM) disease; assay type: in vivo; settings: 50 ppm, control value
Experimental: Botrytis cinerae, which was isolated from cucumber infected thereby, was inoculated on a PDA agar medium and cultured under a 12L/12D cycle at 25° C. for 15 days to form spore. The spores were scraped, filtered through a gauze and then suspended in potato dextrose liquid medium at a concentration of 1×10^6 spore/ml. The spore suspension was sprayed on a cucumber plant having one leaf. The cucumber plant was held in a humidified room at 20° C. for 3 days. L.A. on a leaf was measured to calculate an C.V.

Rhizoctonia solani AG-1 = assay: Fungicidal activity against rice sheath blight (RSB) disease; settings: 50 ppm, control value
Experimental: 50 ml of the resulting solution was sprayed on leaves of a host plant. The plant was kept at room temperature for 24 hours to let the solvent evaporate, and then, a pathogenic fungus was inoculated thereonto. The plant was held in a humidity chamber for 24 hours, transferred to an plant growth room kept at 20 to 27° C. and a relative humidity of 60 to 80% and kept to induce disease. Subsequently, the lesion area(L.A.) attacked by the pathogenic fungus was measured according to a method of Cho(Cho, K. Y., Search Report by Korea Research Institute of Chemical Technology (1989))”. This procedure was repeated twice for each test. 10% Acetone solution containing 250 ppm of Tween-20 was used as a control.
The fungicidal activity of the compound of the present invention is repressed by a control value (C.V.) calculated as; [formula]
Rhizoctonia solani AG-1 was cultured on a PDA medium(potato 200 g, dextrose 20 g, agar 20 g and distilled water 1 l) for 3 days and the agar disc (diameter 0.6 cm) was inoculated and cultured on sterilized wheat bran medium in a 1 l bottle at 26 to 28° C. for 7 days. A mycelial mass was ground using a homogenizer, inoculated uniformly on soil of a pot wherein a Nakdong rice plant having 2 or 3 leaves and an height of 5 cm grew, and kept in humidity polyvinyl chamber for 5 days to induce RSB. L.A. on a leaf sheath was measured to calculate an C.V.

Phytophthora infestans = assay type: in vivo; settings: 50 ppm; control value, tomato late blight
Puccinia recondita = assay: Fungicidal activity against wheat leaf rust (WLR) disease; assay type: in vivo; settings: for C. V. (%), Fungicidal Activities against WLB at 10 ppm: Table 8 (Test Example 5); for C. V. (%) WLR: 50 ppm, control value, wheat leaf rust

Row | SMILES | C. V. (%), Fungicidal activities against TLB at 10 ppm (Erysiphae graminis) [%] | C. V. (%) BPM (Erysiphae graminis) [%] | C. V. (%) Fungicidal Activities against RCB at 10 ppm [1] [%] | C. V. (%) Fungicidal Activities against RCB at 10 ppm (TABLE 6) [1] [%] | C. V. (%) RCB [1] [%] | C. V. (%) CGM (Botrytis cinerae) [%] | C. V. (%) RSB (Rhizoctonia solani AG-1) [%] | C. V. (%) TLB (Phytophthora infestans) [%] | C. V. (%), Fungicidal Activities against WLB at 10 ppm (Puccinia recondita) [%] | C. V. (%) WLR (Puccinia recondita) [%]
1 | COC=C(C(=O)OC)c1ccccc1COc1cccc(OC(F)=Cc2cccc(F)c2)c1 [Compound 34] | 100 | 100 | 100 | 100 | 99 | 0 | 95 | 75 | 100 | 98
2 | CCCCCCC(=C(F)Oc1cccc(OCc2ccccc2C(=COC)C(=O)NC)c1)C(F)(F)F [Compound 107] |  | 41 |  |  | 0 | 21 | 10 | 3 |  | 80
3 | COC=C(C(=O)OC)c1ccccc1COc1cccc(OC(F)=C(c2cccs2)C(F)(F)F)c1 [Compound 105] |  | 70 |  |  | 96 | 0 | 78 | 0 | 96 | 100
4 | CNC(=O)/C(=C/OC)c1ccccc1COc1cccc(OC(F)=C(c2ccc(C)c(C)c2)C(F)(F)F)c1 [Compound 64] |  | 0 |  |  | 16 | 0 | 0 | 22 |  | 0
5 | CON=C(C(=O)OC)c1ccccc1COc1cccc(OC(F)=Cc2ccc(C)c(C)c2)c1 [Compound 15] |  | 100 |  |  | 92 | 15 | 90 | 25 |  | 96
6 | CNC(=O)C(=COC)c1ccccc1COc1cccc(OC(F)=Cc2ccc(OC)cc2)c1 [Compound 30] |  | 16 |  |  | 93 | 28 | 5 | 6 |  | 0
7 | COC=C(C(=O)OC)c1ccccc1COc1cccc(OC(F)=Cc2ccccc2C)c1 [Compound 5] | 94 | 99 | 94 | 94 | 95 | 0 | 95 | 50 | 95 | 100
8 | CON=C(C(=O)OC)c1ccccc1COc1cccc(OC(F)=C(c2ccc(Cl)cc2)C(F)(F)F)c1 [Compound 90] | 97 | 99 | 93 | 93 | 90 | 25 | 30 | 0 |  | 100
9 | CNC(=O)C(=NOC)c1ccccc1COc1cccc(OC(F)=C(c2ccc(Cl)cc2)C(F)(F)F)c1 [Compound 91] | 100 | 100 | 99 | 99 | 99 | 17 | 90 | 64 | 100 | 100
10 | CCc1ccc(C(=C(F)Oc2cccc(OCc3ccccc3C(=COC)C(=O)OC)c2)C(F)(F)F)cc1 [Compound 58] | 99 | 100 |  |  | 90 | 25 | 40 | 0 | 95 | 100
11 | CO/N=C(/C(=O)OC)c1ccccc1COc1cccc(OC(F)=C(c2ccc(C)c(C)c2)C(F)(F)F)c1 [Compound 65] | 94 | 99 |  |  | 91 | 16 | 90 | 33 | 100 | 99
12 | COC=C(C(=O)OC)c1ccccc1COc1cccc(OC(F)=Cc2ccc(Cl)cc2)c1 [Compound 37] | 100 | 98 | 100 | 100 | 95 | 58 | 45 | 93 | 97 | 98
13 | CNC(=O)C(=NOC)c1ccccc1COc1cccc(OC(F)=C(c2ccc(F)cc2)C(F)(F)F)c1 [Compound 99] | 100 | 100 | 95 | 95 | 80 | 21 | 90 | 48 | 100 | 100
14 | CON=C(C(=O)OC)c1ccccc1COc1cccc(OC(F)=Cc2cccc(OC)c2)c1 [Compound 27] | 97 | 96 |  |  | 100 | 0 | 90 | 80 |  | 86
15 | CNC(=O)C(=NOC)c1ccccc1COc1cccc(OC(F)=C(c2cccc(F)c2)C(F)(F)F)c1 [Compound 95] | 100 | 100 | 100 | 100 | 100 | 0 | 72 | 0 | 100 | 100
16 | CON=C(C(=O)OC)c1ccccc1COc1cccc(OC(F)=Cc2ccc(Cl)cc2)c1 [Compound 39] | 95 | 96 |  |  | 100 | 15 | 90 | 80 |  | 86
17 | CON=C(C(=O)OC)c1ccccc1COc1cccc(OC(F)=C(c2cccc(F)c2)C(F)(F)F)c1 [Compound 94] | 99 | 100 |  |  | 41 | 0 | 60 | 40 | 95 | 100
